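Tested at 5 concentrations; 48 h exposure; 96-well plates; endpoints linearly interpolated, else capped at highest concentration. GI50 = concentration required for 50% inhibition of growth. Definition used: TGI = concentration required for complete inhibition of growth.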
Assays:
Test in all cases: growth of human tumour cells (NCI), 48 h
[1] = tested on: NCI/ADR-RES ovarian
[2] = tested on: HCT-116 colon
[3] = tested on: SK-MEL-2 melanoma
[4] = tested on: OVCAR-4 ovarian
[5] = tested on: A549 NSCLC
[6] = tested on: SW-620 colon
[7] = tested on: RXF 393 renal
[8] = tested on: UACC-62 melanoma
[9] = tested on: K-562 leukemia
[10] = tested on: CCRF-CEM leukemia
[11] = tested on: HCC-2998 colon
[12] = tested on: OVCAR-3 ovarian
[13] = tested on: NCI-H522 lung
[14] = tested on: MDA-MB-231 breast
[15] = tested on: 786-0 renal
[16] = tested on: OVCAR-8 ovarian
[17] = tested on: A498 renal
[18] = tested on: HL-60(TB) leukemia
[19] = tested on: HOP-92 NSCLC
[20] = tested on: KM12 colon
[21] = tested on: OVCAR-5 ovarian
[22] = tested on: SF-268 CNS
[23] = tested on: CAKI-1 renal
[24] = tested on: EKVX NSCLC
[25] = tested on: MCF7 breast
[26] = tested on: SF-539 CNS
[27] = tested on: RPMI-8226 leukemia
[28] = tested on: T-47D breast
[29] = tested on: UO-31 renal
[30] = tested on: HS 578T breast
[31] = tested on: PC-3 prostate
[32] = tested on: SK-MEL-5 melanoma
[33] = tested on: SF-295 CNS
[34] = tested on: M14 melanoma
[35] = tested on: MDA-MB-435
[36] = tested on: NCI-H23 lung
[37] = tested on: SK-MEL-28 melanoma
[38] = tested on: LOX IMVI melanoma
[39] = tested on: TK-10 renal
[40] = tested on: ACHN renal
[41] = tested on: SR leukemia
[42] = tested on: BT-549 breast
[43] = tested on: MOLT-4 leukemia
[44] = tested on: NCI-H226 lung
[45] = tested on: SK-OV-3 ovarian
[46] = tested on: SN12C renal
[47] = tested on: HT29 colon
[48] = tested on: IGROV1 ovarian
[49] = tested on: MALME-3M melanoma
[50] = tested on: SNB-19 CNS
[51] = tested on: COLO 205 colon
[52] = tested on: NCI-H460 lung
[53] = tested on: U251 CNS
[54] = tested on: HOP-62 NSCLC
[55] = tested on: UACC-257 melanoma
[56] = tested on: SNB-75 CNS
[57] = tested on: HCT-15 colon
[58] = tested on: DU-145 prostate

c1ccc2cc(C[n+]3ccn(CCCCCCCCCCCCn4cc[n+](Cc5ccc6ccccc6c5)c4)c3)ccc2c1 gave a GI50 [1] of 8.09 µM, a TGI [1] of 25 µM and a GI50 [2] of 0.848 µM. The TGI [2] was 3.21 µM, the GI50 [3] was 0.573 µM and the TGI [3] was 1.27 µM. It also gave a GI50 [4] of 0.694 µM, a TGI [4] of 2.53 µM and a GI50 [5] of 0.744 µM. The TGI [5] was 3.57 µM, the GI50 [6] was 0.815 µM and the TGI [6] was 3.3 µM. The GI50 [7] was 0.546 µM, the TGI [7] was 1.67 µM and the GI50 [8] was 0.725 µM. For the same compound, the TGI [8] was 2.43 µM, the GI50 [9] was 0.429 µM and the TGI [9] was 1.19 µM. For the same compound, the GI50 [10] was 0.732 µM, the TGI [10] was 2.4 µM and the GI50 [11] was 1.09 µM. The TGI [11] was 4.74 µM, the GI50 [12] was 0.763 µM and the TGI [12] was 2.4 µM. The GI50 [13] was 0.47 µM, the TGI [13] was 1.25 µM and the GI50 [14] was 0.866 µM. The TGI [14] was 2.88 µM, the GI50 [15] was 1.73 µM and the TGI [15] was 6.93 µM. It also gave a GI50 [16] of 0.783 µM, a TGI [16] of 2.89 µM and a GI50 [17] of 0.515 µM. For the same compound, the TGI [17] was 1.62 µM, the GI50 [18] was 0.545 µM and the TGI [18] was 1.08 µM. The GI50 [19] was 0.5 µM, the TGI [19] was 1.4 µM and the GI50 [20] was 0.553 µM. The TGI [20] was 1.41 µM, the GI50 [21] was 0.863 µM and the TGI [21] was 3.68 µM. It also gave a GI50 [22] of 0.746 µM, a TGI [22] of 3.01 µM and a GI50 [23] of 3.55 µM. The TGI [23] was 25 µM, the GI50 [24] was 0.894 µM and the TGI [24] was 4.2 µM. For the same compound, the GI50 [25] was 0.512 µM, the TGI [25] was 1.17 µM and the GI50 [26] was 0.807 µM. It also gave a TGI [26] of 2.91 µM, a GI50 [27] of 0.898 µM and a TGI [27] of 4.15 µM. For the same compound, the GI50 [28] was 0.554 µM, the TGI [28] was 1.78 µM and the GI50 [29] was 2.66 µM. The TGI [29] was 8.74 µM, the GI50 [30] was 0.693 µM and the TGI [30] was 2.48 µM. It also gave a GI50 [31] of 0.794 µM, a TGI [31] of 2.81 µM and a GI50 [32] of 0.502 µM. For the same compound, the TGI [32] was 1.04 µM, the GI50 [33] was 0.654 µM and the TGI [33] was 2.13 µM. For the same compound, the GI50 [34] was 0.835 µM, the TGI [34] was 3.5 µM and the GI50 [35] was 0.682 µM. The TGI [35] was 2.53 µM, the GI50 [36] was 0.722 µM and the TGI [36] was 2.4 µM. The GI50 [37] was 0.779 µM, the TGI [37] was 2.86 µM and the GI50 [38] was 0.483 µM. For the same compound, the TGI [38] was 0.941 µM, the GI50 [39] was 0.992 µM and the TGI [39] was 4.45 µM. It also gave a GI50 [40] of 1.33 µM, a TGI [40] of 7.71 µM and a GI50 [41] of 0.679 µM. The TGI [41] was 1.67 µM, the GI50 [42] was 0.467 µM and the TGI [42] was 1.17 µM. It also gave a GI50 [43] of 0.508 µM, a TGI [43] of 1.02 µM and a GI50 [44] of 0.984 µM. For the same compound, the TGI [44] was 5.52 µM, the GI50 [45] was 0.661 µM and the TGI [45] was 1.8 µM. The GI50 [46] was 0.652 µM, the TGI [46] was 2.09 µM and the GI50 [47] was 0.693 µM. It also gave a TGI [47] of 1.87 µM, a GI50 [48] of 0.521 µM and a TGI [48] of 1.16 µM. For the same compound, the GI50 [49] was 0.469 µM, the TGI [49] was 1.25 µM and the GI50 [50] was 0.773 µM. It also gave a TGI [50] of 3.49 µM, a GI50 [51] of 0.441 µM and a TGI [51] of 0.833 µM. For the same compound, the GI50 [52] was 0.814 µM, the TGI [52] was 2.96 µM and the GI50 [53] was 0.521 µM. For the same compound, the TGI [53] was 2.53 µM, the GI50 [54] was 0.815 µM and the TGI [54] was 2.65 µM. For the same compound, the GI50 [55] was 0.589 µM, the TGI [55] was 1.53 µM and the GI50 [56] was 0.381 µM. It also gave a TGI [56] of 1.34 µM, a GI50 [57] of 1.48 µM and a TGI [57] of 9.15 µM. It also gave a GI50 [58] of 1.03 µM and a TGI [58] of 3.8 µM.

Source: PubChem BioAssay (NCI)
